One test deals with adult F. hepatica. The experiment in a line: In vitro test on adult F. hepatica (viability scale, effective concentration). More on the design: species or system Fasciola hepatica. Particulars: Fasciola hepatica, 72 h, read-out: Effective in vitro concentration. On the procedure: Representative compounds of formula (I), formula (II), and formula (III) were tested in vitro against F. hepatica as follows. Adult F. hepatica (fluke) were collected from infected bovine livers obtained from a local abattoir (Basel, Switzerland). The worms were quickly washed with 0.9% (w/v) NaCl and placed in 6 or 12-well plates (Costar). Culture medium in each well contained RPMI 1640 (Gibco) at 37° C., which was supplemented with antibiotics (50 μg/ml streptomycin and 50 IU/ml penicillin; Gibco) and 80 μg/ml of a haemin solution. The haemin solution was prepared as follows: 5 mg haemin was dissolved in 1 ml of 0.1M aqueous solution of NaOH, and 3.95 ml of PBS (pH=7.4) and 0.05 ml of 1M HCl were added to adjust the pH to 7.1-7.4 (Keiser and Morson, 2008). Cultures were kept at 37° C. in an atmosphere of 5% CO2. To monitor the temporal effects of test compounds in vitro, 3 flukes were incubated for 72 h in the presence of 50 or 100 μg/ml of each test compound. At 24, 48, and 72 h, worms were examined using a dissecting microscope. For the adult worms, a viability scale ranging from 4 (normal movements) to 1 (death; no movement observed for two min using a microscope) was used.
Table 1 lists representative compounds of formula (I) of the present invention and their effective in vitro concentrations against F. hepatica. All compounds were tested in vitro on the adult stage of F. hepatica as described above. Each data point refers to at least two independent experiments. For Table 1, R2 is H, R4 is Cl and R5 is H.
Table 2 lists representative compounds of formula (II) of the present invention and their effective in vitro concentrations against F. hepatica. All compounds were tested in vitro on the adult stage of F. hepatica as described above. Each data point refers to at least two independent experiments. For Table 2 compounds, the 2-position of the benzimidazole ring is methylthio, R6 is H and R9 is H.
Table 3 lists representative compounds of formula (III) of the present invention and their effective in vitro concentrations against F. hepatica. All compounds were tested in vitro on the adult stage of F. hepatica as described above. Each data point refers to at least two independent experiments. For Table 3, the 2-position of the benzimidazole ring is trifluoromethylthio, R10 is H and R13 is H.
Take `Fc1ccc(Oc2cc3[nH]c(C(F)(F)C(F)(F)C(F)(F)F)nc3cc2Cl)c(F)c1` [Compound 279, 5-chloro-6-(2,4-difluorophenoxy)-2-(heptafluoropropyl)-1H-1,3-benzodiazole]: the minimal effective concentration is less than 5 µg/mL.

In the case of `FC(F)(F)c1nc2cc(Cl)c(-c3cc(Cl)cc(Cl)c3)cc2[nH]1` [Compound 247, 6-chloro-5-(3,5-dichlorophenyl)-2-trifluoromethylbenzimidazole], the minimal effective concentration came to 5 µg/mL.

Take `FC(F)(F)Sc1nc2cc(Cl)c(-c3cccc(Cl)c3)cc2[nH]1` [Compound 103, 6-chloro-5-(3-chlorophenyl)-2-trifluoromethylthiobenzimidazole]: the minimal effective concentration turned out to be 5 µg/mL.

In the case of `Fc1ccc(Oc2cc3[nH]c(C(F)(F)C(F)(F)C(F)(F)F)nc3cc2Cl)cc1` [Compound 284, 5-chloro-6-(4-fluorophenoxy)-2-(heptafluoropropyl)-1H-1,3-benzodiazole], the minimal effective concentration was 5 µg/mL.

For `FC(F)(F)c1nc2cc(Cl)c(-c3cc(Cl)cc(Cl)c3Cl)cc2[nH]1` [Compound 261, 6-chloro-5-(2,3,5-trichlorophenyl)-2-trifluoromethylbenzimidazole], the minimal effective concentration is 5 µg/mL.

The test is the same for the next values; noted with them: Fasciola hepatica; Table 1, formula (I); adult flukes incubated up to 72 h; at least two independent experiments; read-out: Effective in vitro concentration.
As for `FC(F)(F)c1ccc(Oc2cc3[nH]c(C(F)(F)F)nc3cc2Cl)cc1` [Compound 286, 5-chloro-2-(trifluoromethyl)-6-[4-(trifluoromethyl)phenoxy]-1H-1,3-benzodiazole], the minimal effective concentration was determined as 20 µg/mL.

As to `Fc1ccc(Oc2cc3[nH]c(C(F)(F)C(F)(F)F)nc3cc2Cl)cc1` [Compound 283, 5-chloro-6-(4-fluorophenoxy)-2-(pentafluoroethyl)-1H-1,3-benzodiazole], the minimal effective concentration was less than 2.5 µg/mL.

For `FC(F)(F)c1ccc(-c2cc3[nH]c(C(F)(F)C(F)(F)F)nc3cc2Cl)cc1` [Compound 289, 5-chloro-2-(pentafluoroethyl)-6-[4-(trifluoromethyl)phenyl]-1H-1,3-benzodiazole], the minimal effective concentration is less than 2.5 µg/mL.

Take `FC(F)(F)c1cc(Cl)ccc1-c1cc2[nH]c(C(F)(F)C(F)(F)F)nc2cc1Cl` [Compound 305, 5-chloro-6-[4-chloro-2-(trifluoromethyl)phenyl]-2-(pentafluoroethyl)-1H-1,3-benzodiazole]: the minimal effective concentration stood at 20 µg/mL.

Take `Fc1ccc(Oc2cc3[nH]c(C(F)(F)F)nc3cc2Cl)c(F)c1` [Compound 277, 5-chloro-6-(2,4-difluorophenoxy)-2-(trifluoromethyl)-1H-1,3-benzodiazole]: the minimal effective concentration is 10 µg/mL.

On to `FC(F)(F)c1cc(Cl)ccc1-c1cc2[nH]c(C(F)(F)C(F)(F)C(F)(F)F)nc2cc1Cl` [Compound 306, 5-chloro-6-[4-chloro-2-(trifluoromethyl)phenyl]-2-(heptafluoropropyl)-1H-1,3-benzodiazole], for which the minimal effective concentration is 20 µg/mL.

Regarding `FC(F)(F)C(F)(F)c1nc2cc(Cl)c(Oc3ccc(Cl)cc3Cl)cc2[nH]1` [Compound 276, 5-chloro-6-(2,4-dichlorophenoxy)-2-(pentafluoroethyl)-1H-1,3-benzodiazole], the minimal effective concentration was less than 5 µg/mL.

In the case of `FC(F)(F)c1ccc(-c2cc3[nH]c(C(F)(F)F)nc3cc2Cl)c(Cl)c1` [Compound 307, 5-chloro-6-[2-chloro-4-(trifluoromethyl)phenyl]-2-(trifluoromethyl)-1H-1,3-benzodiazole], the minimal effective concentration was less than 2.5 µg/mL.

`FC(F)(F)c1nc2cc(Cl)c(-c3ccc(Cl)cc3Cl)cc2[nH]1` [Compound 260, 6-chloro-5-(2,4-dichlorophenyl)-2-trifluoromethylbenzimidazole]: the minimal effective concentration was found to be 5 µg/mL.

For the compound `FC(F)(F)C(F)(F)c1nc2cc(Cl)c(-c3cccc(Cl)c3Cl)cc2[nH]1` [Compound 262-100, 5-chloro-6-(2,3-dichlorophenyl)-2-(pentafluoroethyl)-1H-1,3-benzodiazole], the minimal effective concentration was 10 µg/mL.

For `FC(F)(F)c1ccc(Oc2cc3[nH]c(C(F)(F)C(F)(F)C(F)(F)F)nc3cc2Cl)cc1` [Compound 288, 5-chloro-2-(heptafluoropropyl)-6-[4-(trifluoromethyl)phenoxy]-1H-1,3-benzodiazole], the minimal effective concentration worked out at 20 µg/mL.

Consider `Fc1ccc(Oc2cc3[nH]c(C(F)(F)C(F)(F)F)nc3cc2Cl)c(F)c1` [Compound 278, 5-chloro-6-(2,4-difluorophenoxy)-2-(pentafluoroethyl)-1H-1,3-benzodiazole], for which the minimal effective concentration is less than 5 µg/mL.

Turning to `FC(F)(F)c1ccc(-c2cc3[nH]c(C(F)(F)C(F)(F)C(F)(F)F)nc3cc2Cl)c(Cl)c1` [Compound 309, 5-chloro-6-[2-chloro-4-(trifluoromethyl)phenyl]-2-(heptafluoropropyl)-1H-1,3-benzodiazole], the minimal effective concentration stood at 20 µg/mL.

`FC(F)(F)c1ccc(-c2cc3[nH]c(C(F)(F)F)nc3cc2Cl)c(C(F)(F)F)c1` [Compound 301, 6-[2,4-bis(trifluoromethyl)phenyl]-5-chloro-2-(trifluoromethyl)-1H-1,3-benzodiazole]: the minimal effective concentration was less than 10 µg/mL.

For the compound `Fc1ccc(-c2cc3[nH]c(C(F)(F)F)nc3cc2Cl)cc1` [Compound 280, 5-chloro-6-(4-fluorophenyl)-2-(trifluoromethyl)-1H-1,3-benzodiazole], the minimal effective concentration was 20 µg/mL.

For the compound `FC(F)(F)c1nc2cc(Cl)c(Oc3ccc(Cl)cc3Cl)cc2[nH]1` [Compound 275, 5-chloro-6-(2,4-dichlorophenoxy)-2-(trifluoromethyl)-1H-1,3-benzodiazole], the minimal effective concentration was 10 µg/mL.

On to `FC(F)(F)c1nc2cc(Cl)c(-c3ccc(Cl)cc3C(F)(F)F)cc2[nH]1` [Compound 304, 5-chloro-6-[4-chloro-2-(trifluoromethyl)phenyl]-2-(trifluoromethyl)-1H-1,3-benzodiazole], for which the minimal effective concentration is 20 µg/mL.

With `FC(F)(F)c1nc2cc(Cl)c(-c3ccc(Cl)c(Cl)c3)cc2[nH]1` [Compound 258, 6-chloro-5-(3,4-dichlorophenyl)-2-trifluoromethylbenzimidazole], the minimal effective concentration came out at 5 µg/mL.

As to `FC(F)(F)c1ccc(-c2cc3[nH]c(C(F)(F)C(F)(F)F)nc3cc2Cl)c(Cl)c1` [Compound 308, 5-chloro-6-[2-chloro-4-(trifluoromethyl)phenyl]-2-(pentafluoroethyl)-1H-1,3-benzodiazole], the minimal effective concentration was less than 10 µg/mL.

With `Fc1ccc(-c2cc3[nH]c(C(F)(F)C(F)(F)F)nc3cc2Cl)cc1` [Compound 281, 5-chloro-6-(4-fluorophenyl)-2-(pentafluoroethyl)-1H-1,3-benzodiazole], the minimal effective concentration came to 5 µg/mL.

For the compound `FC(F)(F)c1ccc(Oc2cc3[nH]c(C(F)(F)C(F)(F)F)nc3cc2Cl)cc1` [Compound 287, 5-chloro-2-(pentafluoroethyl)-6-[4-(trifluoromethyl)phenoxy]-1H-1,3-benzodiazole], the minimal effective concentration is 50 µg/mL.

For `FC(F)(F)c1ccc(Oc2cc3[nH]c(C(F)(F)C(F)(F)F)nc3cc2Cl)c(Cl)c1` [Compound 296, 5-chloro-6-[2-chloro-4-(trifluoromethyl)phenoxy]-2-(pentafluoroethyl)-1H-1,3-benzodiazole], the minimal effective concentration is less than 2.5 µg/mL.

Turning to `FC(F)(F)c1ccc(-c2cc3[nH]c(C(F)(F)C(F)(F)F)nc3cc2Cl)c(C(F)(F)F)c1` [Compound 302, 6-[2,4-bis(trifluoromethyl)phenyl]-5-chloro-2-(pentafluoroethyl)-1H-1,3-benzodiazole], the minimal effective concentration was less than 2.5 µg/mL.

The same test, now with this note: Fasciola hepatica; Table 2, formula (II); adult flukes incubated up to 72 h; at least two independent experiments; read-out: Effective in vitro concentration.
Regarding `CSc1nc2cc(Cl)c(Oc3ccccc3Br)cc2[nH]1` [Compound 014, 6-chloro-5-(2-bromophenoxy)-2-methylthiobenzimidazole], the minimal effective concentration came out at 50 µg/mL.

For the compound `CSc1nc2cc(Cl)c(Oc3cccc(C)c3C)cc2[nH]1` [Compound 019, 6-chloro-5-(2,3-dimethylphenoxy)-2-methylthiobenzimidazole], the minimal effective concentration was determined as 20 µg/mL.

Turning to `CCCCCCc1cc2[nH]c(SC)nc2cc1Cl` [Compound 024, 6-chloro-5-hexyl-2-methylthiobenzimidazole], the minimal effective concentration came to 50 µg/mL.

The test is the same for the next values; noted with them: Fasciola hepatica; Table 3, formula (III); adult flukes incubated up to 72 h; at least two independent experiments; read-out: Effective in vitro concentration.
In the case of `FC(F)(F)Sc1nc2cc(Cl)c(Oc3cccc(Cl)c3Cl)cc2[nH]1` [Compound 049, 6-chloro-5-(2,3-dichlorophenoxy)-2-trifluoromethylthiobenzimidazole], the minimal effective concentration amounted to 10 µg/mL.

Values taken from US9695129B2, “Parasiticidal compositions comprising benzimidazole derivatives, methods and uses thereof” (MERIAL INC., priority 2012, dated 2017).
